Reference: paper PMC12605127, “Cyclopropane xenolipids resemble monounsaturated fatty acids and modulate peroxisome proliferator-activated receptors” (Journal of Lipid Research, 2025)
Where two headings read alike, the source gives them in different places.

How the values were obtained:
human PPARδ = biological target: T1, human PPARδ (Homo sapiens, UniProt Q03181); assay: LanthaScreen TR-FRET coactivator recruitment assay, PPARδ LBD (C33 peptide); type: biochemical; details: for Emax: read-out: Emax, maximum efficacy, PPARδ; for EC50: TR-FRET coactivator recruitment, human PPARδ LBD, read-out: EC50, half maximal effective concentration, PPARδ
T1 construct: purchased ThermoFisher Scientific PV4685
T1 sequence (Q03181 211-439 limits assumed): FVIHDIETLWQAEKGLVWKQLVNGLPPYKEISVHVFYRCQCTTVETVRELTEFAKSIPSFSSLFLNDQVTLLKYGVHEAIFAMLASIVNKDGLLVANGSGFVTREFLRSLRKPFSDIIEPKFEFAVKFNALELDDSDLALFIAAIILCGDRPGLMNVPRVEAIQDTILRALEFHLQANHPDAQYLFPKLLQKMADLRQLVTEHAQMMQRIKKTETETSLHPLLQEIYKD

human PPARα = biological target: T2, human PPARα (Homo sapiens, UniProt Q07869); assay: LanthaScreen TR-FRET coactivator recruitment assay, PPARα LBD (PGC1α peptide); type: biochemical; details: for Emax: read-out: Emax, maximum efficacy, PPARα; for EC50: TR-FRET coactivator recruitment, human PPARα LBD, read-out: EC50, half maximal effective concentration, PPARα
T2 construct: purchased ThermoFisher Scientific PV4684
T2 sequence (Q07869 239-466 limits assumed): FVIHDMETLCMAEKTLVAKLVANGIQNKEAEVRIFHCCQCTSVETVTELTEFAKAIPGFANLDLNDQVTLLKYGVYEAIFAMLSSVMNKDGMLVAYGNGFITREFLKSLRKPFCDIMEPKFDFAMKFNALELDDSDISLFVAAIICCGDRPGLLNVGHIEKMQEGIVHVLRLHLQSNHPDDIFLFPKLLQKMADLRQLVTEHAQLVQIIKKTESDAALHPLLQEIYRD

Angptl4 = Angptl4 mRNA expression (qPCR) in 3T3-L1 preadipocytes, without and with PPAR antagonists; type: cell-based, murine; details: agonist and antagonist both 10 μM, 3T3-L1 cells
PPARγ = biological target: PPARγ; set-up: method as in PMID 32909075; details: lowest Kd among nine lipids tested in vitro; cited from earlier work
[1] = % relative to agonist control GW501516 at the highest concentration, 95% confidence intervals in parentheses
[2] = 95% confidence intervals in parentheses
[3] = % relative to agonist control GW7647 at the highest concentration, 95% confidence intervals in parentheses

| SMILES | Emax (human PPARδ; [1]) | EC50 (human PPARδ; [2]) | Emax (human PPARα; [3]) | EC50 (human PPARα; [2]) | other results |
| --- | --- | --- | --- | --- | --- |
| CCC/C=C\CCCCCCCCCCCC(=O)O [C17:1 cis-13, (13Z)-heptadec-13-enoic acid] | 30.6% | 17.8 µM | 70% | 4.7 µM | Emax, maximum efficacy, PPARα (human PPARα; [3]): 69.86 (43, 96.7) a % |
| CCCCCC/C=C\CCCCCCCCCC(=O)O [C18:1 cis-11, (11Z)-octadec-11-enoic acid] | 43.5% | 22 µM | 45.2% | 3.5 µM |  |
| CCC(=O)NC[C@H](Cc1ccc(OCCc2nc(-c3ccccc3)oc2C)cc1)N/C(C)=C\C(=O)c1ccc(C(F)(F)F)cc1 [GW6471] |  |  |  |  | Reduction of PPAR agonist-mediated Angptl4 expression by the antagonist (Angptl4): did not inhibit |
| CCCCCC[C@@H]1C[C@@H]1CCCCCCCC(=O)O [C16Δ1 cis-9, (9S,10R)-9,10-methylenehexadecanoic acid] | 58.1% | 22 µM | 62.3% | 12.2 µM |  |
| CCCCCC/C=C\CCCCCCCC(=O)O [C16:1 cis-9, (9Z)-hexadec-9-enoic acid] | 39.5% | 26.4 µM | 59.1% | 2.13 µM |  |
| CCC[C@@H]1C[C@@H]1CCCCCCCCCC(=O)O [C15Δ1 cis-11, (11S,12R)-11,12-methylenepentadecanoic acid] | 14.9% | 25.6 µM | 26.3% | 14.1 µM |  |
| O=C(Nc1ccncc1)c1cc([N+](=O)[O-])ccc1Cl [T0070907] |  |  |  |  | Reduction of PPAR agonist-mediated Angptl4 expression by the antagonist (Angptl4): ~50% |
| CCCCCC[C@@H]1C[C@@H]1CCCCCCCCCC(=O)O [C18Δ1 cis-11, (11S,12R)-11,12-methyleneoctadecanoic acid] | 57% | 25.8 µM | 54.7% | 7.65 µM | Emax, maximum efficacy, PPARδ (human PPARδ; [1]): 57.03 (52.5, 61.6) a %; Kd (PPARγ): ~100 µM |
| CCC[C@@H]1C[C@@H]1CCCCCCCCCCCC(=O)O [C17Δ1 cis-13, (13S,14R)-13,14-methyleneheptadecanoic acid] | 37.1% | 26.8 µM | 65% | 4.12 µM | Emax, maximum efficacy, PPARα (human PPARα; [3]): 65.01 (52.5, 77.5) a % |
| O=C(NCCS(=O)(=O)c1ccc(C(F)(F)F)cn1)c1ccc(Cl)cc1 [GSK3787] |  |  |  |  | Reduction of PPAR agonist-mediated Angptl4 expression by the antagonist (Angptl4): ~50% |
| CCC/C=C\CCCCCCCCCC(=O)O [C15:1 cis-11, (11Z)-pentadec-11-enoic acid] | 18.9% | 25.7 µM | 26.6% | 12.8 µM |  |
| CCCCCCCC/C=C\CCCCCCCC(=O)O [C18:1 cis-9, (9Z)-octadec-9-enoic acid] |  | 18.5 µM |  | 0.91 µM | Emax (human PPARδ): 51.9%; Emax (human PPARα): 52% |
| CCCCCCCC[C@@H]1C[C@@H]1CCCCCCCC(=O)O [C18Δ1 cis-9, (9S,10R)-9,10-methyleneoctadecanoic acid] | ~74% | 27.1 µM | 51.4% | 5.23 µM | Emax, maximum efficacy, PPARδ (human PPARδ; [1]): 73.56 (65.9, 81.2) b % |

Second part, led by results:

| Emax (human PPARδ; [1]) | EC50 (human PPARδ; [2]) | Emax (human PPARα; [3]) | EC50 (human PPARα; [2]) | SMILES | other results |
| --- | --- | --- | --- | --- | --- |
|  |  | 52.6% | 5.43 µM | CCCCCCCCCCCCCCCC(=O)O [C16, Hexadecanoic acid] |  |
|  |  | 86.6% |  | CC(C)(Sc1ccc(CCN(CCCCC2CCCCC2)C(=O)NC2CCCCC2)cc1)C(=O)O [GW7647] |  |
| 41.3% | 22.3 µM | 58.9% | 5.04 µM | CCCCCCCCCCCCCCCCC(=O)O [C17, Heptadecanoic acid] |  |
| 23.7% | 25.6 µM | 36.8% | 9.6 µM | CCCCCCCCCCCCCCC(=O)O [C15, Pentadecanoic acid] |  |
|  |  | 55.9% | 6.37 µM | CCCCCCCCCCCCCCCCCC(=O)O [C18, Octadecanoic acid] |  |
